Source: PubChem BioAssay (NCI)
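Tested at 5 concentrations; 48 h exposure; 96-well plates; endpoints linearly interpolated, else capped at highest concentration. TGI denotes the concentration required for complete inhibition of growth.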

Experiments:
Assay in all cases: DTP human tumour cell line panel, 48 h
[1] = system: HL-60(TB) leukemia
[2] = system: HCC-2998 colon
[3] = system: SNB-19 CNS
[4] = system: DU-145 prostate
[5] = system: NCI-H460 lung
[6] = system: IGROV1 ovarian
[7] = system: SK-MEL-28 melanoma
[8] = system: NCI-H23 lung
[9] = system: HT29 colon
[10] = system: SF-539 CNS
[11] = system: A498 renal
[12] = system: RXF 393 renal
[13] = system: ACHN renal
[14] = system: KM12 colon
[15] = system: UACC-62 melanoma
[16] = system: 786-0 renal
[17] = system: SK-MEL-2 melanoma
[18] = system: HCT-15 colon
[19] = system: RPMI-8226 leukemia
[20] = system: U251 CNS
[21] = system: A549 NSCLC
[22] = system: LOX IMVI melanoma
[23] = system: MCF7 breast
[24] = system: HCT-116 colon
[25] = system: SNB-75 CNS
[26] = system: TK-10 renal
[27] = system: SW-620 colon
[28] = system: HOP-92 NSCLC
[29] = system: CCRF-CEM leukemia
[30] = system: NCI-H226 lung
[31] = system: MDA-MB-435
[32] = system: HOP-62 NSCLC
[33] = system: MDA-MB-231 breast
[34] = system: K-562 leukemia
[35] = system: MALME-3M melanoma
[36] = system: SF-295 CNS
[37] = system: SR leukemia
[38] = system: MOLT-4 leukemia
[39] = system: T-47D breast
[40] = system: PC-3 prostate
[41] = system: EKVX NSCLC
[42] = system: HS 578T breast
[43] = system: SK-OV-3 ovarian
[44] = system: OVCAR-8 ovarian
[45] = system: BT-549 breast
[46] = system: SF-268 CNS
[47] = system: SN12C renal
[48] = system: SK-MEL-5 melanoma
[49] = system: M14 melanoma
[50] = system: UACC-257 melanoma
[51] = system: OVCAR-5 ovarian
[52] = system: OVCAR-3 ovarian
[53] = system: COLO 205 colon
[54] = system: CAKI-1 renal
[55] = system: UO-31 renal
[56] = system: OVCAR-4 ovarian
[57] = system: NCI-H522 lung
[58] = system: NCI/ADR-RES ovarian

O=C1C(NCCF)=C(Cl)C(=O)c2ncccc21
TGI [1]: 0.854 µM | TGI [2]: 2.5 µM | TGI [3]: 2.68 µM | TGI [4]: 2.33 µM | TGI [5]: 1.68 µM | TGI [6]: 3.28 µM | TGI [7]: 2 µM | TGI [8]: 2.8 µM | TGI [9]: 6.15 µM | TGI [10]: 2.34 µM | TGI [11]: 3.17 µM | TGI [12]: 2.01 µM | TGI [13]: 3.62 µM | TGI [14]: 2.93 µM | TGI [15]: 1.25 µM | TGI [16]: 2.51 µM | TGI [17]: 0.794 µM | TGI [18]: 2.08 µM | TGI [19]: 1.78 µM | TGI [20]: 2 µM | TGI [21]: 3.79 µM | TGI [22]: 1.61 µM | TGI [23]: 2.28 µM | TGI [24]: 2.4 µM | TGI [25]: 1.93 µM | TGI [26]: 3.23 µM | TGI [27]: 2.15 µM | TGI [28]: 3.67 µM | TGI [29]: 0.695 µM | TGI [30]: 3.66 µM | TGI [31]: 0.353 µM | TGI [32]: 3.47 µM | TGI [33]: 5.19 µM | TGI [34]: 0.575 µM | TGI [35]: 1.2 µM | TGI [36]: 3.02 µM | TGI [37]: 5.35 µM | TGI [38]: 3.27 µM | TGI [39]: 5.04 µM | TGI [40]: 3.45 µM | TGI [41]: 3.47 µM | TGI [42]: 4.01 µM | TGI [43]: 3.28 µM | TGI [44]: 3.27 µM | TGI [45]: 2.86 µM | TGI [46]: 4.17 µM | TGI [47]: 2.2 µM | TGI [48]: 0.343 µM | TGI [49]: 2.28 µM | TGI [50]: 3.23 µM | TGI [51]: 3.46 µM

O=C(CC(=O)N1N=C(N2c3ccccc3Sc3ccccc32)CC1c1ccccc1)Nc1ccccc1Cl (centres undefined)
TGI [1]: > 100 µM | TGI [2]: > 100 µM | TGI [3]: > 100 µM | TGI [4]: > 100 µM | TGI [5]: > 100 µM | TGI [6]: > 100 µM | TGI [7]: > 100 µM | TGI [8]: > 100 µM | TGI [52]: > 100 µM | TGI [9]: > 100 µM | TGI [10]: > 100 µM | TGI [11]: > 100 µM | TGI [53]: > 100 µM | TGI [12]: > 100 µM | TGI [54]: > 100 µM | TGI [13]: > 100 µM | TGI [14]: > 100 µM | TGI [15]: > 100 µM | TGI [16]: > 100 µM | TGI [17]: > 100 µM | TGI [18]: > 100 µM | TGI [19]: > 100 µM | TGI [20]: > 100 µM | TGI [21]: > 100 µM | TGI [55]: > 100 µM | TGI [56]: > 100 µM | TGI [24]: > 100 µM | TGI [25]: > 100 µM | TGI [26]: > 100 µM | TGI [27]: > 100 µM | TGI [28]: > 100 µM | TGI [29]: > 100 µM | TGI [30]: > 100 µM | TGI [31]: > 100 µM | TGI [32]: > 100 µM | TGI [33]: > 100 µM | TGI [34]: > 100 µM | TGI [36]: > 100 µM | TGI [38]: > 100 µM | TGI [39]: > 100 µM | TGI [40]: > 100 µM | TGI [57]: > 100 µM | TGI [41]: > 100 µM | TGI [42]: > 100 µM | TGI [44]: > 100 µM | TGI [45]: > 100 µM | TGI [46]: > 100 µM | TGI [47]: > 100 µM | TGI [48]: > 100 µM | TGI [58]: > 100 µM | TGI [49]: > 100 µM | TGI [50]: > 100 µM | TGI [51]: > 100 µM
